From patent publication US9217170B2, “Fluorescent detector systems for the detection of chemical perturbations in sterile storage devices” (Blood Cell Storage, Inc., priority 2004, dated 2015)
Read-outs that look alike come from different tables or passages of the source.

Key:
[1] = pH 6
Procedure: (§1) Absorbance was measured at pH 6, 8, and 10: acid (pH 6) gave two bands of similar absorbance; pH 10 gave a single λmax (base). The emission spectra were determined by excitation at the absorbance λmax (base). The wavelength where emission spectra crossed is reported as λiso. The emission λmax was measured at pH 10. pKa was determined from fluorescence emission spectra.
(§2) Fluorescence versus pH of various SNAFL free acids were compared using an Ocean Optics USB2000 fiber optic spectrometer and a tungsten halogen light source (part number HL-2000 FHSA). The light source was equipped with a linear variable filter that allowed the wavelength and shape of the excitation beam to be adjusted. […] A cuvette holder (part number CUV-FL-DA) was directly attached to the light source and a fiber optic cable directed emitted light to the spectrometer. Excitation conditions are reported for each fluorescence spectrum (3000 msec irradiation at the indicated wavelength). Spectral data were collected on a personal computer using the Ocean Optics software and overlays of different spectra were captured. […]
(§3) The pH at which two molecular species (tautomers) are equally represented is defined as the pKa. […] The intensity of fluorescence at the emission maxima is divided by 2, and pH of the intersecting pH curve is calculated by interpolation between the nearest 2 curves.

[2] = pKa determination from fluorescence emission spectra of SNAFL analogs; details: phosphate buffer, pH 6
Procedure: as §1, §2, §3

[3] = published / literature value; cited from earlier work

Compound: 5′(and 6′)-carboxy-3,10-dihydroxy-spiro[7H-benzo[c]xanthene-7,1′(3′H)-isobenzofuran]-3′-one [SNAFL-1]
- pKa [1]: 7.6

Compound: O=C(O)CCc1cc2c(-c3ccccc3C(=O)O)c3ccc4cc(O)c(Cl)cc4c3oc-2cc1=O [EBIO-3, 2-(2-chloro-3-hydroxy-9-carboxyethyl-10-oxo-10H-benzo[c]xanthen-7-yl)benzoic acid]
- pKa [2]: 6.6

Compound: O=S1(=O)OC2(c3ccccc31)c1ccc3cc(O)ccc3c1Oc1c2ccc2cc(O)ccc12 [VITABLUE]
- pKa [3]: 7.56
